Assay results reported in patent US20220119354A1, “DIAMINO-SUBSTITUTED PYRIDINES AND PYRIMIDINES AS HERBICIDES” (FMC Corporation, priority 2019, published 2022).

Experiments:
Assay type in all cases: in vivo
[1] = test system: pigweed (Amaranthus retroflexus); experiment: Test A preemergence, pigweed; conditions: 0 to 100 scale; for Pigweed plant response rating: 125 g ai/ha, 0 is no effect, 100 is complete control; for Plant response rating, Pigweed: 500 g ai/ha
Procedure, shortened: (§1)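 0–100 visual control rating, ~10 d post-treatment, greenhouse. Pre = directed soil spray on seeded loam/sand; post = spray at 1–2 leaf stage. Surfactant-containing solvent formulation.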

[2] = test system: ducksalad (Heteranthera limosa); experiment: Test B flooded paddy test, ducksalad; conditions: Flood, 250 g ai/ha, applied to paddy water, 2-leaf stage, visual evaluation after 13 to 15 d
Procedure, shortened: (§2)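 Each response is a visual 0–100 rating made against untreated controls, where 0 is no effect and 100 is complete control; a dash marks no result. Compound was dosed into 3 cm paddy water over 2-leaf plants, assessed after 13 to 15 d.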

[3] = test system: ragweed (common ragweed, Ambrosia elatior); experiment: Test A preemergence, ragweed; conditions: 0 to 100 scale; for Ragweed plant response rating: 125 g ai/ha, 0 is no effect, 100 is complete control; for Plant response rating, Ragweed: 500 g ai/ha
Procedure, shortened: as §1

[4] = test system: barnyardgrass (Echinochloa crus-galli); experiment: Test B flooded paddy test, barnyardgrass; conditions: Flood, 250 g ai/ha, applied to paddy water, 2-leaf stage, visual evaluation after 13 to 15 d
Procedure, shortened: as §2

rice (Oryza sativa) = experiment: Test B flooded paddy test, rice; conditions: Flood, 250 g ai/ha, applied to paddy water, 2-leaf stage, visual evaluation after 13 to 15 d
Procedure, shortened: as §2

[5] = test system: foxtail, giant (Setaria faberii); experiment: Test A postemergence, giant foxtail; conditions: 0 to 100 scale
Procedure, shortened: as §1

[6] = test system: ryegrass, Italian (Lolium multiflorum); experiment: Test A postemergence, Italian ryegrass; conditions: 0 to 100 scale
Procedure, shortened: as §1

[7] = test system: pigweed (Amaranthus retroflexus); experiment: Test A postemergence, pigweed; conditions: 0 to 100 scale
Procedure, shortened: as §1

[8] = test system: barnyardgrass (Echinochloa crus-galli); experiment: Test A preemergence, barnyardgrass; conditions: 0 to 100 scale; for Barnyardgrass plant response rating: 125 g ai/ha, 0 is no effect, 100 is complete control; for Plant response rating, Barnyardgrass: 500 g ai/ha
Procedure, shortened: as §1

[9] = test system: sedge, umbrella (small-flower umbrella sedge, Cyperus difformis); experiment: Test B flooded paddy test, umbrella sedge; conditions: Flood, 250 g ai/ha, applied to paddy water, 2-leaf stage, visual evaluation after 13 to 15 d
Procedure, shortened: as §2

[10] = test system: ragweed (common ragweed, Ambrosia elatior); experiment: Test A postemergence, ragweed; conditions: 0 to 100 scale
Procedure, shortened: as §1

[11] = test system: blackgrass (Alopecurus myosuroides); experiment: Test A postemergence, blackgrass; conditions: 0 to 100 scale
Procedure, shortened: as §1

kochia (Kochia scoparia) [12] = experiment: Test A preemergence, kochia; conditions: 0 to 100 scale; for Kochia plant response rating: 125 g ai/ha, 0 is no effect, 100 is complete control; for Plant response rating, Kochia: 500 g ai/ha
Procedure, shortened: as §1

[13] = test system: wheat (Triticum aestivum); experiment: Test A postemergence, wheat; conditions: 0 to 100 scale
Procedure, shortened: as §1

[14] = test system: galium (catchweed bedstraw, Galium aparine); experiment: Test A postemergence, galium; conditions: 0 to 100 scale
Procedure, shortened: as §1

[15] = test system: barnyardgrass (Echinochloa crus-galli); experiment: Test A postemergence, barnyardgrass; conditions: 0 to 100 scale
Procedure, shortened: as §1

[16] = test system: ryegrass, Italian (Lolium multiflorum); experiment: Test A preemergence, Italian ryegrass; conditions: 0 to 100 scale; for Ryegrass, Italian plant response rating: 125 g ai/ha, 0 is no effect, 100 is complete control; for Plant response rating, Ryegrass, Italian: 500 g ai/ha
Procedure, shortened: as §1

kochia (Kochia scoparia) [17] = experiment: Test A postemergence, kochia; conditions: 0 to 100 scale
Procedure, shortened: as §1

[18] = test system: foxtail, giant (Setaria faberii); experiment: Test A preemergence, giant foxtail; conditions: 0 to 100 scale; for Foxtail, Giant plant response rating: 125 g ai/ha, 0 is no effect, 100 is complete control; for Plant response rating, Foxtail, Giant: 500 g ai/ha
Procedure, shortened: as §1

corn (Zea mays) = experiment: Test A postemergence, corn; conditions: 0 to 100 scale
Procedure, shortened: as §1

Question: With `Cc1cccc(OCC(C)Nc2ncc(C(F)(F)F)c(N)n2)c1` (stereo not drawn) [Compound 32] as the compound, how does the “Pigweed plant response rating” value [1] read?
Answer: The value was 10.

Question: What about the “Plant response rating, Pigweed” value [1] of the same compound?
Answer: Its value is 60.

Question: And the “Plant response rating, Ducksalad (0 to 100 scale, 0 is no effect, 100 is complete control)” value [2]?
Answer: The value was 0.

Question: And the “Ragweed plant response rating” value [3]?
Answer: Its value is 0.

Question: What about the “Plant response rating, Ragweed” value [3] of the same compound?
Answer: The value was 100.

Question: And the “Plant response rating, Barnyardgrass (0 to 100 scale, 0 is no effect, 100 is complete control)” value [4]?
Answer: Its value is 0.

Question: What about the “Plant response rating, Rice (0 to 100 scale, 0 is no effect, 100 is complete control)” value (rice (Oryza sativa)) of the same compound?
Answer: The value was 0.

Question: What about the “Plant response rating, Foxtail, Giant” value ([5]; 125 g ai/ha) of the same compound?
Answer: The value was 0.

Question: What about the “Plant response rating, Foxtail, Giant” value ([5]; 500 g ai/ha) of the same compound?
Answer: Its value is 40.

Question: And the “Plant response rating, Ryegrass, Italian” value ([6]; 125 g ai/ha)?
Answer: The value was 0.

Question: And the “Plant response rating, Ryegrass, Italian” value ([6]; 500 g ai/ha)?
Answer: Its value is 0.

Question: And the “Plant response rating, Pigweed” value ([7]; 125 g ai/ha)?
Answer: Its value is 30.

Question: And the “Plant response rating, Pigweed” value ([7]; 500 g ai/ha)?
Answer: The value was 60.

Question: What about the “Barnyardgrass plant response rating” value [8] of the same compound?
Answer: The value was 0.

Question: What about the “Plant response rating, Barnyardgrass” value [8] of the same compound?
Answer: Its value is 90.

Question: What about the “Plant response rating, Sedge, Umbrella (0 to 100 scale, 0 is no effect, 100 is complete control)” value [9] of the same compound?
Answer: The value was 0.

Question: What about the “Plant response rating, Ragweed” value ([10]; 125 g ai/ha) of the same compound?
Answer: Its value is 0.

Question: What about the “Plant response rating, Ragweed” value ([10]; 500 g ai/ha) of the same compound?
Answer: The value was 40.

Question: And the “Plant response rating, Blackgrass” value ([11]; 125 g ai/ha)?
Answer: The value was 0.

Question: And the “Plant response rating, Blackgrass” value ([11]; 500 g ai/ha)?
Answer: Its value is 0.

Question: What about the “Kochia plant response rating” value (kochia (Kochia scoparia) [12]) of the same compound?
Answer: Its value is 0.

Question: What about the “Plant response rating, Kochia” value (kochia (Kochia scoparia) [12]) of the same compound?
Answer: The value was 30.

Question: And the “Plant response rating, Wheat” value ([13]; 125 g ai/ha)?
Answer: Its value is 0.

Question: And the “Plant response rating, Wheat” value ([13]; 500 g ai/ha)?
Answer: Its value is 0.

Question: And the “Plant response rating, Galium” value ([14]; 125 g ai/ha)?
Answer: The value was 60.

Question: And the “Plant response rating, Galium” value ([14]; 500 g ai/ha)?
Answer: Its value is 70.

Question: What about the “Plant response rating, Barnyardgrass” value ([15]; 125 g ai/ha) of the same compound?
Answer: The value was 0.

Question: What about the “Plant response rating, Barnyardgrass” value ([15]; 500 g ai/ha) of the same compound?
Answer: Its value is 20.

Question: What about the “Ryegrass, Italian plant response rating” value [16] of the same compound?
Answer: The value was 0.

Question: What about the “Plant response rating, Ryegrass, Italian” value [16] of the same compound?
Answer: Its value is 0.

Question: And the “Plant response rating, Kochia” value (kochia (Kochia scoparia) [17]; 125 g ai/ha)?
Answer: Its value is 20.

Question: And the “Plant response rating, Kochia” value (kochia (Kochia scoparia) [17]; 500 g ai/ha)?
Answer: Its value is 60.

Question: And the “Foxtail, Giant plant response rating” value [18]?
Answer: Its value is 20.

Question: What about the “Plant response rating, Foxtail, Giant” value [18] of the same compound?
Answer: Its value is 80.

Question: What about the “Plant response rating, Corn” value (corn (Zea mays); 125 g ai/ha) of the same compound?
Answer: The value was 0.

Question: What about the “Plant response rating, Corn” value (corn (Zea mays); 500 g ai/ha) of the same compound?
Answer: Its value is 0.

Question: Which “Pigweed plant response rating” value [1] does the source give for `CC(COc1cc(F)cc(F)c1)Nc1ncc(C(F)(F)F)c(N)n1` (stereo not drawn) [Compound 33] here?
Answer: Its value is 20.

Question: And the “Plant response rating, Pigweed” value [1]?
Answer: The value was 50.

Question: What about the “Plant response rating, Ducksalad (0 to 100 scale, 0 is no effect, 100 is complete control)” value [2] of the same compound?
Answer: The value was 70.

Question: What about the “Ragweed plant response rating” value [3] of the same compound?
Answer: The value was 0.

Question: And the “Plant response rating, Ragweed” value [3]?
Answer: The value was 0.

Question: What about the “Plant response rating, Barnyardgrass (0 to 100 scale, 0 is no effect, 100 is complete control)” value [4] of the same compound?
Answer: The value was 0.

Question: What about the “Plant response rating, Rice (0 to 100 scale, 0 is no effect, 100 is complete control)” value (rice (Oryza sativa)) of the same compound?
Answer: Its value is 0.

Question: What about the “Plant response rating, Foxtail, Giant” value ([5]; 125 g ai/ha) of the same compound?
Answer: Its value is 0.

Question: What about the “Plant response rating, Foxtail, Giant” value ([5]; 500 g ai/ha) of the same compound?
Answer: The value was 0.

Question: What about the “Plant response rating, Ryegrass, Italian” value ([6]; 125 g ai/ha) of the same compound?
Answer: The value was 0.

Question: And the “Plant response rating, Ryegrass, Italian” value ([6]; 500 g ai/ha)?
Answer: The value was 0.

Question: What about the “Plant response rating, Pigweed” value ([7]; 125 g ai/ha) of the same compound?
Answer: Its value is 0.

Question: What about the “Plant response rating, Pigweed” value ([7]; 500 g ai/ha) of the same compound?
Answer: The value was 30.

Question: And the “Barnyardgrass plant response rating” value [8]?
Answer: The value was 0.

Question: And the “Plant response rating, Barnyardgrass” value [8]?
Answer: Its value is 0.

Question: What about the “Plant response rating, Sedge, Umbrella (0 to 100 scale, 0 is no effect, 100 is complete control)” value [9] of the same compound?
Answer: Its value is 25.

Question: What about the “Plant response rating, Ragweed” value ([10]; 125 g ai/ha) of the same compound?
Answer: The value was 0.

Question: And the “Plant response rating, Ragweed” value ([10]; 500 g ai/ha)?
Answer: The value was 0.

Question: And the “Plant response rating, Blackgrass” value ([11]; 125 g ai/ha)?
Answer: Its value is 0.

Question: What about the “Plant response rating, Blackgrass” value ([11]; 500 g ai/ha) of the same compound?
Answer: Its value is 0.

Question: What about the “Kochia plant response rating” value (kochia (Kochia scoparia) [12]) of the same compound?
Answer: The value was 0.

Question: What about the “Plant response rating, Kochia” value (kochia (Kochia scoparia) [12]) of the same compound?
Answer: The value was 30.

Question: What about the “Plant response rating, Wheat” value ([13]; 125 g ai/ha) of the same compound?
Answer: Its value is 0.

Question: What about the “Plant response rating, Wheat” value ([13]; 500 g ai/ha) of the same compound?
Answer: Its value is 0.

Question: And the “Plant response rating, Galium” value ([14]; 125 g ai/ha)?
Answer: Its value is 20.

Question: And the “Plant response rating, Galium” value ([14]; 500 g ai/ha)?
Answer: The value was 60.

Question: What about the “Plant response rating, Barnyardgrass” value ([15]; 125 g ai/ha) of the same compound?
Answer: Its value is 0.

Question: What about the “Plant response rating, Barnyardgrass” value ([15]; 500 g ai/ha) of the same compound?
Answer: Its value is 0.

Question: And the “Ryegrass, Italian plant response rating” value [16]?
Answer: The value was 0.

Question: And the “Plant response rating, Ryegrass, Italian” value [16]?
Answer: The value was 0.

Question: And the “Plant response rating, Kochia” value (kochia (Kochia scoparia) [17]; 125 g ai/ha)?
Answer: The value was 0.

Question: And the “Plant response rating, Kochia” value (kochia (Kochia scoparia) [17]; 500 g ai/ha)?
Answer: Its value is 30.

Question: What about the “Foxtail, Giant plant response rating” value [18] of the same compound?
Answer: Its value is 0.

Question: What about the “Plant response rating, Foxtail, Giant” value [18] of the same compound?
Answer: The value was 30.

Question: What about the “Plant response rating, Corn” value (corn (Zea mays); 125 g ai/ha) of the same compound?
Answer: Its value is 0.

Question: And the “Plant response rating, Corn” value (corn (Zea mays); 500 g ai/ha)?
Answer: Its value is 0.
